Measured values taken from ChEMBL document CHEMBL1136751 (J Med Chem, 2003).

Columns and labels:
[1] = molecular target: T1, Peroxisome proliferator-activated receptor alpha (Homo sapiens, UniProt Q07869); test: Receptor binding affinity to human Peroxisome proliferator activated receptor alpha against [3H]-NNC 0061-4655 radioligand
T1 sequence (Q07869 whole entry): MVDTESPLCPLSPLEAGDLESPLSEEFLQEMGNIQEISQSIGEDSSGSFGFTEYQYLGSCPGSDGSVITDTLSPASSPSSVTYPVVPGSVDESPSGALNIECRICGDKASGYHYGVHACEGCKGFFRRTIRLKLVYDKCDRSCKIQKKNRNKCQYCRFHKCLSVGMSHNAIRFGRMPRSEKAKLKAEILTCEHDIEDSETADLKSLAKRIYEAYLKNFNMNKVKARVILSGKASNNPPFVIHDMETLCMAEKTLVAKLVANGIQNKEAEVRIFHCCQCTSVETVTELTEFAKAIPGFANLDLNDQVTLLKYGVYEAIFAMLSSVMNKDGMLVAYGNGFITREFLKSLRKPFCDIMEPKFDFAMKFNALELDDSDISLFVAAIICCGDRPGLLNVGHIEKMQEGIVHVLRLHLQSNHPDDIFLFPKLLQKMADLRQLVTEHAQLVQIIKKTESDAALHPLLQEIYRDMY

[2] = molecular target: T2, Peroxisome proliferator-activated receptor gamma (Homo sapiens, UniProt P37231)
T2 sequence (P37231 whole entry): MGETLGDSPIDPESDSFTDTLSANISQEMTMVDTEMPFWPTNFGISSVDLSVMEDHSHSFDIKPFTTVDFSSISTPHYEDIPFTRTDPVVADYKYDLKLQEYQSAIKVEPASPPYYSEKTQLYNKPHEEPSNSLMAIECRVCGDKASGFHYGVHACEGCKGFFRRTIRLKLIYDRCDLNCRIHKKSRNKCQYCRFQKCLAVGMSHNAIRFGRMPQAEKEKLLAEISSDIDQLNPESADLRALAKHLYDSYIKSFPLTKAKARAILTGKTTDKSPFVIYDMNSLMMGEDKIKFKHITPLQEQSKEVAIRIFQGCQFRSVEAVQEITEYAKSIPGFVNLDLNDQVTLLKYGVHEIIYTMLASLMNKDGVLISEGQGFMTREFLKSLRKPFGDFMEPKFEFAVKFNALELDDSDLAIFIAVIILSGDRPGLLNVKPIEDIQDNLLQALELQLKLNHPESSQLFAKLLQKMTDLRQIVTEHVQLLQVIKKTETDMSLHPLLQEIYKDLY
Description: Receptor binding affinity to human Peroxisome proliferator activated receptor gamma against [3H]ragalitazar radioligand

[3] = molecular target: T2, Peroxisome proliferator-activated receptor gamma; remark: listed apart in the source
Description: Agonistic activity for human Peroxisome proliferator activated receptor gamma

[4] = molecular target: T1, Peroxisome proliferator-activated receptor alpha; test: Agonistic activity for Peroxisome proliferator activated receptor alpha; assay type: functional

SMILES | IC50 [1] [µM] | IC50 [2] [µM] | EC50 [3] [µM] | EC50 [4] [µM]
CCO[C@H](Cc1ccc(OCCN2c3ccccc3Oc3ccccc32)cc1)C(=O)O | > 10 | > 10 |  | 
CCO[C@@H](Cc1ccc(OCCN2c3ccccc3Oc3ccccc32)cc1)C(=O)O [RAGAGLITAZAR] | 0.98 |  | 0.6 | 
CCO[C@@H](Cc1ccc(OCCc2ccc(OS(C)(=O)=O)cc2)cc1)C(=O)O [TESAGLITAZAR] | 3.8 | 0.35 | 1.3 | 1.2
